The target of series [1] is T1, human recombinant MLK3 protein (Homo sapiens, UniProt Q16584).
T1 construct: purchased Eurofins
As to the kind of experiment: MLK3 kinase activity assay (Eurofins, gamma-33P-ATP, filtermat scintillation counting). It is filed as biochemical. The following applies: human recombinant MLK3, 120 minutes at room temperature. On the procedure: (§1) Compounds 1 to 119 synthesized in Example 1 according to the present disclosure were assayed for inhibitory activity against MLK3/LRRK2 enzymes and anticancer activity against HepG2/HS746T cancer cells, and the results are summarized in Table 1, below.
(§2) Inhibitory activity against MLK3 and LRRK2 enzymes was evaluated in Eurofins. In brief, human recombinant MLK3 protein was mixed with the compounds in a reaction buffer (8 mM MOPS (pH 7.0), 0.2 mM EDTA, 0.33 mg/mL myelin basic protein, 5 mM DTT) to which a mixture of 10 mM magnesium acetate and gamma-33P-ATP was then added before incubation at room temperature for 120 minutes. Afterward, the reaction was terminated with 0.5% phosphoric acid. Ten μL of the total mixture was spotted onto a P30 filtermat which was then washed four times for 4 minutes with 0.425% phosphoric acid and once in methanol prior to scintillation counting. Values for the activity of MLK3 were expressed as % of the control. For the activity of LRRK2, human recombinant LRRK2 protein was mixed with the compounds in a reaction buffer (50 mM HEPES (pH 8.0), 0.2 mM EDTA, 0.01% Brij-35, 1% (w/v) BSA, 5 mM DTT, 250 uM substrate peptide RLGRDKYKTLRQIRQ) and then reacted with a mixture of 10 mM magnesium acetate and gamma-33P-ATP at room temperature for 40 minutes. Afterward, the reaction was terminated with 0.5% phosphoric acid. Ten μL of the total mixture was spotted onto a P30 filtermat which was then washed four times for 4 minutes with 0.425% phosphoric acid and once in methanol prior to scintillation counting. Values for the activity of LRRK2 were expressed as % of the control.

Series [2] deals with T2, human recombinant LRRK2 protein (Homo sapiens, UniProt Q5S007).
T2 construct: purchased Eurofins
As to the kind of experiment: LRRK2 kinase activity assay (Eurofins, gamma-33P-ATP, filtermat scintillation counting). It is filed as biochemical. The note with it: human recombinant LRRK2, 40 minutes at room temperature. Here is the method: as §1, §2

The next series relates to HepG2 cancer cells. As to the kind of experiment: Anticancer activity, cell viability by CCK-8, HepG2. Type of series: cell-based. The note with it: HepG2, 10 μM, 72 hours. On the procedure: (§3) Compounds 1 to 119 synthesized in Example 1 according to the present disclosure were assayed for inhibitory activity against MLK3/LRRK2 enzymes and anticancer activity against HepG2/H[…] cancer cells, and the results are summarized in Table 1, below. Assay for anticancer activity was conducted as follows. HepG2 and H[…] cancer cells were purchased from the Korean Cell Line Bank and cultured according to the instruction provided thereby. One hundred μL of a culture of the cells were seeded at a density of 4,000 cells/well into 96-well plates. After 24 hours, the cells were treated with the compounds for 72 hours. Then, cell viability was assayed using CCK-8 and expressed as % of the control.

The test system of a further series is HS746T cancer cells. The series can be described thus: Anticancer activity, cell viability by CCK-8, HS746T. It is filed as cell-based. The following applies: 72 hours. On the procedure: as §3

The values that follow come from patent US20240270698A2, “NOVEL PYRIMIDINE DERIVATIVE AND USE THEREOF” (KOREA RESEARCH INSTITUTE OF CHEMICAL TECHNOLOGY, priority 2019, published 2024).

T2 sequence (Q5S007 whole entry): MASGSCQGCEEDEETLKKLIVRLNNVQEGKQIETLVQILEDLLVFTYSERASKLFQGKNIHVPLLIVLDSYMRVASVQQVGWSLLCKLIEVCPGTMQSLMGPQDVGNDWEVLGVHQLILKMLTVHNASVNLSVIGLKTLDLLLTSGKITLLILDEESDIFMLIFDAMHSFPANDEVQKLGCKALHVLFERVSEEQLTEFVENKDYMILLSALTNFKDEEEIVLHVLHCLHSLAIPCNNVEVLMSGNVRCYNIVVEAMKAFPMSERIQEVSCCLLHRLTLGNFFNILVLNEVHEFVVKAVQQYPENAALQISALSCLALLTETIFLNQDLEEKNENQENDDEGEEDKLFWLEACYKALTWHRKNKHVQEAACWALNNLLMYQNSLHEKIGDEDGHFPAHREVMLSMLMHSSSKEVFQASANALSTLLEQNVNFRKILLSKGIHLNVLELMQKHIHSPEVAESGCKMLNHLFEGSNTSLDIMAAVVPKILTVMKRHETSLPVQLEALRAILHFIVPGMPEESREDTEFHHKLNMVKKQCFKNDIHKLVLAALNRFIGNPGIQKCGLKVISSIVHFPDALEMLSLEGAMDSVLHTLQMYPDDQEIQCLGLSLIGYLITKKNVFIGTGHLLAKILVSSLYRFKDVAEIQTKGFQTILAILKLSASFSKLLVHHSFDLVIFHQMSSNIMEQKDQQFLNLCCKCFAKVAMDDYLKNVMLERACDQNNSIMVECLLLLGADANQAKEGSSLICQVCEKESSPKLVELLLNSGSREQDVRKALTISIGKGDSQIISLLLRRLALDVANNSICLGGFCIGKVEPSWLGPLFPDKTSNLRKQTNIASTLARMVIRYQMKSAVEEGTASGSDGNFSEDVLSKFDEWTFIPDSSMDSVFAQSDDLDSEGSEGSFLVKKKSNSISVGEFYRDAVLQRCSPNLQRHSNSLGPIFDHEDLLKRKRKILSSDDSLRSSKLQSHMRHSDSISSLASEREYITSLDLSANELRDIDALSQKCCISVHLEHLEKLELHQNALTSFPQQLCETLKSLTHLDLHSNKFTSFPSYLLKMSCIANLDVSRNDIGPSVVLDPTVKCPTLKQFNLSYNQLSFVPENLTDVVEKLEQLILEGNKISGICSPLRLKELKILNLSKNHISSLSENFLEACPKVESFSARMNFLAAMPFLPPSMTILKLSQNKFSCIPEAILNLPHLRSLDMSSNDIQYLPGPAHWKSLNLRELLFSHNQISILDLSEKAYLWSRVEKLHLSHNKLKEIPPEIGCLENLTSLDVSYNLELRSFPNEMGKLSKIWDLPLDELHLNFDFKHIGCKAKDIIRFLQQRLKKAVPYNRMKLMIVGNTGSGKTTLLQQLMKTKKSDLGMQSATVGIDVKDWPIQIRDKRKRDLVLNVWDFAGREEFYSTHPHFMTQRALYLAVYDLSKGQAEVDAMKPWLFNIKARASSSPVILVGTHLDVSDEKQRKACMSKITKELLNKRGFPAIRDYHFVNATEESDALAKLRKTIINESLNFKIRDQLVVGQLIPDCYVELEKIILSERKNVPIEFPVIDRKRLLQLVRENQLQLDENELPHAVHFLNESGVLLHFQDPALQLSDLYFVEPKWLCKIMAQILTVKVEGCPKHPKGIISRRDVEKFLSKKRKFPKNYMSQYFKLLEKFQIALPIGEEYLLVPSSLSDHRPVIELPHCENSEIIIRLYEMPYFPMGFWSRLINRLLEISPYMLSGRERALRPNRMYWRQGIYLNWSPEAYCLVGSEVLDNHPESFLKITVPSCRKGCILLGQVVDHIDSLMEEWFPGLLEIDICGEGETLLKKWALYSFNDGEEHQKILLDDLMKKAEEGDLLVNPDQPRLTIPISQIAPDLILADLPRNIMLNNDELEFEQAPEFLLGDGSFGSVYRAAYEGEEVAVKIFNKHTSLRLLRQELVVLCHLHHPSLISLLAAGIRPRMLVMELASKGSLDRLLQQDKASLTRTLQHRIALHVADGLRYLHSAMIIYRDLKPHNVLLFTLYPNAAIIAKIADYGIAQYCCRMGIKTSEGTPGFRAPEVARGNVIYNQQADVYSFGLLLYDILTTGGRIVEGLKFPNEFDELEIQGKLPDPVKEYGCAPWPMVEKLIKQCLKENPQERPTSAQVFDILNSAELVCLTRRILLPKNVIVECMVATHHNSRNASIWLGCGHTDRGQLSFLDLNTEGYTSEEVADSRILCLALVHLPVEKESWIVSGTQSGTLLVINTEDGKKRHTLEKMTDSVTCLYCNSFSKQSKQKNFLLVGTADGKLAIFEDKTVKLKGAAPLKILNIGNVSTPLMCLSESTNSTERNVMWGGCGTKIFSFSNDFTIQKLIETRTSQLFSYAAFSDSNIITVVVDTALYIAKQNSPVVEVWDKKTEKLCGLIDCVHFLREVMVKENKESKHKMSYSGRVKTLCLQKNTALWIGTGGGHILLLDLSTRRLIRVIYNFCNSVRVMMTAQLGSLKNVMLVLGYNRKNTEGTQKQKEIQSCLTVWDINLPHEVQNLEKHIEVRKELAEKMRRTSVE
T1 sequence (Q16584 whole entry): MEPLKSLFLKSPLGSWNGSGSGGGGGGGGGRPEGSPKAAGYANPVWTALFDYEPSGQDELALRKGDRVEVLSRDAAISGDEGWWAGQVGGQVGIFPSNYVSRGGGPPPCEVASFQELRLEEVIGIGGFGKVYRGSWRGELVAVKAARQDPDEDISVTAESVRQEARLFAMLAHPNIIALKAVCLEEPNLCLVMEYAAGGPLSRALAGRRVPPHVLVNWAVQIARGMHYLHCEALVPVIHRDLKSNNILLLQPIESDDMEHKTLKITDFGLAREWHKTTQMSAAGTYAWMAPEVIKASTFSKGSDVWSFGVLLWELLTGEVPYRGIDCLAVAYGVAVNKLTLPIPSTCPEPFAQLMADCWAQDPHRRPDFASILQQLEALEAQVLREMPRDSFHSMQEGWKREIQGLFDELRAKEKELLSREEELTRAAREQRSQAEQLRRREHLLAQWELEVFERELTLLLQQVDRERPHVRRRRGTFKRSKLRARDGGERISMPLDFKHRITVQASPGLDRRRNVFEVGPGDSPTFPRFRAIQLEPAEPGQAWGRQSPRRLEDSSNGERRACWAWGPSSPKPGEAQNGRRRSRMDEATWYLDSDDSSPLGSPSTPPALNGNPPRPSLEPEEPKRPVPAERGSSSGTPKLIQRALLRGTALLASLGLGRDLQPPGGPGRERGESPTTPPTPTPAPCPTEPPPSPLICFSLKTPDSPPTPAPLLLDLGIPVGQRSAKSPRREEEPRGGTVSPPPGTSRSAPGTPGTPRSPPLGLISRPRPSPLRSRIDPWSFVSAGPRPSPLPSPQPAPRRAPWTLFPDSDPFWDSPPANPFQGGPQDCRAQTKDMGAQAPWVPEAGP

For orientation: IC50 means the midpoint of a concentration-inhibition curve. Turning to `CC(C)S(=O)(=O)c1ccccc1Nc1nc(Nc2cc(Cl)cc(Cl)c2)ncc1Cl` [compound 2, 5-Chloro-N^2-(3,5-dichlorophenyl)-N^4-(2-(isopropylsulfonyl)phenyl) pyrimidine-2,4-diamine], the IC50 in series [1] and in series [2] was 100 to 1000 nM throughout.

For `Cc1cc(C)cc(Nc2ncc(Cl)c(Nc3ccccc3S(=O)(=O)C(C)C)n2)c1` [compound 3, 5-Chloro-N^2-(3,5-dimethylphenyl)-N^4-(2-(isopropylsulfonyl)phenyl) pyrimidine-2,4-diamine], the IC50 in series [1] and in series [2] was 100 to 1000 nM each time.

`CC(C)S(=O)(=O)c1ccccc1Nc1nc(Nc2cc(F)c(Br)c(F)c2)ncc1Cl` [compound 4, N^2-(4-Bromo-3,5-difluorophenyl)-5-chloro-N^4-(2-(isopropylsulfonyl)phenyl)pyrimidine-2,4-diamine]: the IC50 in series [1] is 100 to 1000 nM; in series [2], 10 to 100 nM.

With `CC(C)S(=O)(=O)c1ccccc1Nc1nc(Nc2cc(C(F)(F)F)cc(C(F)(F)F)c2)ncc1Cl` [compound 5, N^2-(3,5-bis(trifluoromethyl)phenyl)-5-chloro-N^4-(2-(isopropylsulfonyl)phenyl)pyrimidine-2,4-diamine], the half-inhibitory concentration (IC50) in series [1] is 10 to 100 nM; in series [2] it was 100 to 1000 nM.

With `CC(C)S(=O)(=O)c1ccccc1Nc1nc(Nc2cc(F)cc(F)c2)ncc1Cl` [compound 6, 5-Chloro-N^2-(3,5-difluorophenyl)-N^4-(2-(isopropylsulfonyl)phenyl) pyrimidine-2,4-diamine], the IC50 in series [1] and in series [2] was 100 to 1000 nM throughout.

For `CC1(C)CCC(C)(C)c2cc(Nc3ncc(Cl)c(Nc4ccccc4P(C)(C)=O)n3)ccc21` [compound 7, (2-((5-Chloro-2-((5,5,8,8-tetramethyl-5,6,7,8-tetrahydronaphthalen-2-yl)amino)pyrimidin-4-yl)amino)phenyl)dimethylphosphine oxide], the IC50 in series [1] and in series [2] was 100 to 1000 nM in each case. The “Cell viability (% of Con. 10 μM) HepG2” value in the series on HepG2 cancer cells is recorded as 75 % of Con. Moreover, the “Cell viability (% of Con. 10 μM) HS746T” value in the series on HS746T cancer cells is 103 % of Con.

Consider `CP(C)(=O)c1ccccc1Nc1nc(N2CCc3c(N)cccc3C2)ncc1Cl` [compound 9, (2-((2-(5-Amino-3,4-dihydroisoquinolin-2(1H)-yl)-5-chloropyrimidin-4-yl)amino)phenyl)dimethylphosphine oxide], for which the IC50 in series [1] and in series [2] was more than 1000 nM in each case. Further, the “Cell viability (% of Con. 10 μM) HepG2” value in the series on HepG2 cancer cells is listed as 110 % of Con. Moreover, in the series with HS746T cancer cells, the “Cell viability (% of Con. 10 μM) HS746T” value is given as 104 % of Con.

On to `Cc1cc(Nc2ncc(Cl)c(Nc3ccccc3P(C)(C)=O)n2)ccn1` [compound 10, (2-((5-Chloro-2-((2-methylpyridin-4-yl)amino)pyrimidin-4-yl)amino)phenyl)dimethylphosphine oxide], for which the IC50 in series [1] and in series [2] was more than 1000 nM throughout. In the series with HepG2 cancer cells, the “Cell viability (% of Con. 10 μM) HepG2” value was 91 % of Con. Besides, the “Cell viability (% of Con. 10 μM) HS746T” value in the series on HS746T cancer cells is recorded as 120 % of Con.

Regarding `CP(C)(=O)c1ccccc1Nc1nc(Nc2ccc3ncsc3c2)ncc1Cl` [compound 11, (2-((2-(Benzo[d]thiazol-6-ylamino)-5-chloropyrimidin-4-yl)amino)phenyl)dimethylphosphine oxide], the IC50 in series [1] and in series [2] was 1 to 10 nM each time. Also, the “Cell viability (% of Con. 10 μM) HepG2” value with HepG2 cancer cells is 28 % of Con. Moreover, the “Cell viability (% of Con. 10 μM) HS746T” value in the series on HS746T cancer cells is reported as 27 % of Con.

With `CP(C)(=O)c1ccccc1Nc1nc(NCc2ccc(F)cc2)ncc1Cl` [compound 12, (2-((5-Chloro-2-((4-fluorobenzyl)amino)pyrimidin-4-yl)amino)phenyl)dimethylphosphine oxide], the concentration for half-maximal inhibition (IC50) in series [1] and in series [2] was more than 1000 nM throughout. For the same compound, the “Cell viability (% of Con. 10 μM) HepG2” value in the series with HepG2 cancer cells is 85 % of Con. Besides, the “Cell viability (% of Con. 10 μM) HS746T” value in the series with HS746T cancer cells is reported as 97 % of Con.

With `CP(C)(=O)c1ccccc1Nc1nc(NCc2ccccc2)ncc1Cl` [compound 14, (2-((2-(Benzylamino)-5-chloropyrimidin-4-yl)amino)phenyl) dimethylphosphine oxide], the IC50 in series [1] and in series [2] was more than 1000 nM each time. Also, the “Cell viability (% of Con. 10 μM) HepG2” value with HepG2 cancer cells is 108 % of Con. Also, the “Cell viability (% of Con. 10 μM) HS746T” value in the series with HS746T cancer cells is given as 110 % of Con.

For the compound `CP(C)(=O)c1ccccc1Nc1nc(Nc2ccncc2)ncc1Cl` [compound 15, (2-((5-Chloro-2-(pyridin-4-ylamino)pyrimidin-4-yl)amino)phenyl) dimethylphosphine oxide], the IC50 in series [1] and in series [2] was more than 1000 nM each time. The “Cell viability (% of Con. 10 μM) HepG2” value with HepG2 cancer cells is on record as 116 % of Con. Further, the “Cell viability (% of Con. 10 μM) HS746T” value in the series with HS746T cancer cells is listed as 110 % of Con.

For `CP(C)(=O)c1ccccc1Nc1nc(NC2CCCCC2)ncc1Cl` [compound 16, (2-((5-Chloro-2-(cyclohexylamino)pyrimidin-4-yl)amino)phenyl) dimethylphosphine oxide], the IC50 in series [1] and in series [2] was more than 1000 nM each time. Further, in the series on HepG2 cancer cells, the “Cell viability (% of Con. 10 μM) HepG2” value is on record as 82 % of Con. Also, the “Cell viability (% of Con. 10 μM) HS746T” value with HS746T cancer cells is reported as 64 % of Con.

As to `Cn1ncc2cc(Nc3ncc(Cl)c(Nc4ccccc4P(C)(C)=O)n3)cnc21` [compound 78], the IC50 lay in the range of 10 to 100 nM in series [1] and 1 to 10 nM in series [2]. Besides, the “Cell viability (% of Con. 10 μM) HS746T” value in the series with HS746T cancer cells is reported as 17 % of Con.

For the compound `CP(C)(=O)c1ccccc1Nc1nc(Nc2cnc3[nH]ccc3c2)ncc1Cl` [compound 79, (2-((2-((1H-Pyrrolo[2,3-b]pyridin-5-yl)amino)-5-chloropyrimidin-4-yl)amino)phenyl)dimethylphosphine oxide], the IC50 was in the range of 10 to 100 nM in series [1] and 1 to 10 nM in series [2]. Further, the “Cell viability (% of Con. 10 μM) HS746T” value in the series with HS746T cancer cells is given as 19 % of Con.

Consider `CP(C)(=O)c1ccccc1Nc1nc(Nc2cnc3[nH]ncc3c2)ncc1Cl` [compound 82, (2-((2-((1H-Pyrazolo[3,4-b]pyridin-5-yl)amino)-5-chloropyrimidin-4-yl)amino)phenyl)dimethylphosphine oxide], for which the IC50 in series [1] and in series [2] was 10 to 100 nM each time. The “Cell viability (% of Con. 10 μM) HS746T” value with HS746T cancer cells was 18 % of Con.

For the compound `CP(C)(=O)c1ccccc1Nc1nc(Nc2ccc3[nH]nc(-c4cccnc4F)c3c2)ncc1Cl` [compound 83, (2-((5-Chloro-2-((3-(2-fluoropyridin-3-yl)-1H-indazol-5-yl)amino)pyrimidin-4-yl)amino)phenyl)dimethylphosphine oxide], the IC50 in series [1] and in series [2] was 1 to 10 nM throughout. The “Cell viability (% of Con. 10 μM) HS746T” value in the series with HS746T cancer cells is 11 % of Con.

In the case of `CP(C)(=O)c1ccccc1Nc1nc(Nc2ccc3[nH]nc(-c4cn[nH]c4)c3c2)ncc1Cl` [compound 84, (2-((2-((3-(1H-Pyrazol-4-yl)-1H-indazol-5-yl)amino)-5-chloropyrimidin-4-yl)amino)phenyl)dimethylphosphine oxide], the IC50 in series [1] and in series [2] was 1 to 10 nM in each case. Also, the “Cell viability (% of Con. 10 μM) HS746T” value in the series on HS746T cancer cells is given as 11 % of Con.

With `CC(C)(C)OC(=O)N1CC=C(c2n[nH]c3ccc(Nc4ncc(Cl)c(Nc5ccccc5P(C)(C)=O)n4)cc23)CC1` [compound 85, Tert-butyl 4-(5-((5-chloro-4-((2-(dimethylphosphoryl)phenyl)amino)pyrimidin-2-yl)amino)-1H-indazol-3-yl)-3,6-dihydropyridine-1(2H)-carboxylate], the IC50 in series [1] and in series [2] was 1 to 10 nM throughout. Also, the “Cell viability (% of Con. 10 μM) HS746T” value with HS746T cancer cells is listed as 6 % of Con.

With `CP(C)(=O)c1ccccc1Nc1nc(Nc2ccc3[nH]nc(C4=CCNCC4)c3c2)ncc1Cl` [compound 91], the IC50 in series [1] and in series [2] was 1 to 10 nM throughout. For the same compound, the “Cell viability (% of Con. 10 μM) HS746T” value in the series with HS746T cancer cells was 5.8 % of Con.

As to `CP(C)(=O)c1ccccc1Nc1nc(Nc2ccc3[nH]nc(-c4ccc(C=O)o4)c3c2)ncc1Cl` [compound 92, 5-(5-((5-Chloro-4-((2-(dimethylphosphoryl)phenyl)amino)pyrimidin-2-yl)amino)-1H-indazol-3-yl)furan-2-carbaldehyde], the IC50 in series [1] and in series [2] was 1 to 10 nM in each case. For the same compound, the “Cell viability (% of Con. 10 μM) HS746T” value in the series with HS746T cancer cells is reported as 14.1 % of Con.
